Test results reported in patent US20250171473A1, “Phosphorous Containing BCL Inhibitors and Senolytic Compounds and Uses Thereof” (Rubedo Life Sciences, Inc., priority 2023, published 2025).

Tests used:
Assay type in all cases: cell-based
senescent A549 cells = assay: Senescence assay, viability of senescent A549 cells (CellTiter-Glo or XTT); settings: Homo sapiens; chemotherapy-induced senescent A549 cells; compounds 24-72 hours; viability relative to untreated control; read-out: Absolute IC50 average A549_SEN IC50
Description: (§1) Cells were maintained in DMEM media (high glucose, 4 mM L-glutamine, no sodium pyruvate) supplemented with 10% fetal bovine serum in a humidified incubator at 37° C. with 5% carbon dioxide. Senescence was induced via treatment with a sublethal concentration of chemotherapy (bleomycin, gemcitabine, doxorubicin, 5-fluorouridine, mitomycin C), followed by a rest period without chemotherapy similarly to what is reported by others in the field (e.g., Aoshiba et al., 2003 Eur Respir J 22:436-443). Senescence was qualified by low EdU (5-ethynyl-2′-deoxyuridine) incorporation and high SA-β-Gal (senescence-associated beta-galactosidase) staining compared to proliferating untreated cells. Senescent cells were plated into 96-well plates at a density of 5-15,000 cells/well. The next day, compounds were added in duplicate across ten different concentrations spanning roughly four Log10 units. Cells were incubated with the compounds for 24-72 hours, at which point viability was quantified using CellTiter-Glo (Promega) or XTT (R&D Systems). The viability for treated cells was determined relative to untreated control cells. The log of the compound concentration vs. normalized mean viability was fit to a four parameters Hill function with variable slope. The bottom was constrained to be greater than zero. The X mean value for Y=50 was interpolated to determine the absolute IC50. The results in Table 1 indicate that many of the compounds are active in cells and can induce a dose dependent decrease in the viability of senescent A549 and IMR90 cells.

HACAT_SEN = assay: Senescence assay, viability of senescent HACAT cells (CellTiter-Glo or XTT); settings: Homo sapiens, compounds 24-72 hours, viability relative to untreated control, read-out: Absolute IC50 average HACAT_SEN IC50
Description: as §1, with “The results in Table 1 indicate that many of the compounds are active in cells and can induce a dose dependent decrease in the viability of senescent A549 and IMR90 cells.” left out

senescent IMR90 cells = assay: Senescence assay, viability of senescent IMR90 cells (CellTiter-Glo or XTT); settings: Homo sapiens, IMR-90; chemotherapy-induced senescent IMR90 cells; compounds 24-72 hours; viability relative to untreated control; read-out: Absolute IC50 average IMR90_SEN IC50
Description: as §1

CCOP(C)(=O)c1nc(N2CCc3cccc(C(=O)Nc4nc5ccccc5s4)c3C2)ccc1-c1cnn(CC23CC4CC(CC(C4)C2)C3)c1C (stereo not drawn) [Compound 1, ethyl(3-(1-(((3r,5r,7r)-adamantan-1-yl)methyl)-5-methyl-1H-pyrazol-4-yl)-6-(8-(benzo[d]thiazol-2-ylcarbamoyl)-3,4-dihydroisoquinolin-2 (1H)-yl)pyridin-2-yl)(methyl)phosphinate]
IC50 (senescent A549 cells): 10 to 100 nM | IC50 (HACAT_SEN): < 10 nM | IC50 (senescent IMR90 cells): 10 to 100 nM

Cc1c(-c2ccc(N3CCc4cccc(C(=O)Nc5nc6ccccc6s5)c4C3)nc2P(C)(=O)O)cnn1CC12CC3CC(CC(C3)C1)C2 [Compound 2, (3-(1-(((3r,5r,7r)-adamantan-1-yl)methyl)-5-methyl-1H-pyrazol-4-yl)-6-(8-(benzo[d]thiazol-2-ylcarbamoyl)-3,4-dihydroisoquinolin-2 (1H)-yl)pyridin-2-yl)(methyl)phosphinic acid]
IC50 (senescent A549 cells): 10 to 100 nM | IC50 (senescent IMR90 cells): 100 to 1000 nM

Cc1c(-c2ccc(N3CCc4cccc(C(=O)Nc5nc6ccccc6s5)c4C3)nc2P(C)(=O)OCc2ccc(O[C@@H]3O[C@@H](C)[C@@H](O)[C@@H](O)[C@@H]3O)cc2)cnn1CC12CC3CC(CC(C3)C1)C2 (stereo partly drawn) [Compound 3, 4-(((2S,3S,4R,5S,6S)-3,4,5-trihydroxy-6-methyltetrahydro-2H-pyran-2-yl)oxy) benzyl(3-(1-(((3r,5r,7r)-adamantan-1-yl)methyl)-5-methyl-1H-pyrazol-4-yl)-6-(8-(benzo[d]thiazol-2-ylcarbamoyl)-3,4-dihydroisoquinolin-2 (1H)-yl)pyridin-2-yl)(methyl)phosphinate]
IC50 (senescent A549 cells): 10 to 100 nM | IC50 (senescent IMR90 cells): 100 to 1000 nM

Cc1cc(N(C)c2nc(P(C)(=O)O)c(CCCOc3ccc(C#CCN(C)C)cc3F)s2)nnc1Nc1nc2ccccc2s1 [Compound 4, (2-((6-(benzo[d]thiazol-2-ylamino)-5-methylpyridazin-3-yl)(methyl)amino)-5-(3-(4-(3-(dimethylamino)prop-1-yn-1-yl)-2-fluorophenoxy)propyl)thiazol-4-yl)(methyl)phosphinic acid]
IC50 (senescent A549 cells): 100 to 1000 nM | IC50 (senescent IMR90 cells): 1000 to 10000 nM
